In patent publication US20260000729A1, “COMBINATION THERAPIES FOR TREATMENT OF CANCER” (The Regents of the University of Michigan, priority 2022, published 2026):

Assays:
PC3-luc cells [1] = assay: Intratibial PC3-luc tumor growth in SCID mice, checked weekly by BLI; assay type: in vivo; conditions: BAL 20 mg/kg s.c. twice daily, DOC 5 mg/kg i.p. once a week, weeks 1-4, combination p=0.009
Procedure: Methods: 59 severe combined immunodeficiency (SCID) mice received intratibial injection with PC3-luc cells (2×10^4 cells in 20 ul). Balixafortide (20 mg/kg) (BAL) and vehicle were injected subcutaneously twice daily starting on day one and Docetaxel (5 mg/kg) (DOC) was injected intraperitoneal once a week starting on day one. The tumor growth in mouse tibia was checked weekly by BLI.

PC3-luc cells [2] = assay: Radiograph of injected tibia at necropsy: bone degradation and percent osteolytic area; assay type: in vivo, mice; conditions: proximal third of tibia, no significant differences among the groups
Procedure: After 30 days, at the time of necropsy, tumor growth in mouse tibia was checked by radiograph and mice were sacrificed, and serum and bone were collected. Serum was kept at −80° C. and tibia were stored in 10% buffered formalin at room temperature for 48 hours before being stored at 4° C.
Radiographic images were imported into SketchandCalc software. The proximal third of the tibia was traced to calculate its area and defined as total area, then osteolytic areas were traced to calculate the total osteolytic area (FIG. 3A) and the percent osteolytic area/bone area was calculated.

Row | Molecule | tumor growth / total tumor burden in mouse tibia (BLI) (PC3-luc cells [1]) | percent osteolytic area/bone area (mean) (PC3-luc cells [2])
1 | CC(=O)O[C@@]12CO[C@@H]1C[C@H](O)[C@@]1(C)C(=O)[C@H](O)C3=C(C)[C@@H](OC(=O)[C@H](O)[C@@H](NC(=O)OC(C)(C)C)c4ccccc4)C[C@@](O)([C@@H](OC(=O)c4ccccc4)[C@H]21)C3(C)C [Docetaxel, (2R,3S)—N-carboxy-3-phenylisoserine,N-tert-butylester, 13 ester with 5ß-20-epoxy-1,2a,4,78,10B,13a-hexahydroxytax-11-en-9-one 4-acetate 2 benzoate] | neither BAL nor DOC impacted tumor growth as sole agents | lower than vehicle or Balixafortide
2 | cyclo(-Tyr-His-Ala-Cys-Ser-Ala-^DPro-Dab-Arg-Tyr-Cys-Tyr-Gln-Lys-^DPro-Pro-) having a disulfide bond between Cys4 and Cys11 [Balixafortide] | neither BAL nor DOC impacted tumor growth as sole agents | no significant differences among the groups
